# Like-named read-outs stand apart in the source and are kept apart here.
# What was measured:
# in vivo = conditions: mouse, po, p o, male ICR mice
# Text: The present compounds were given to 6 week-old male mice of the ICR strain and their acute toxicity was examined.
# [1] = test system: serum and liver lipid levels in rats; experiment: Serum and liver lipid levels and relative liver weight in rats (100 mg/kg, 10 days); type: in vivo, Male rats of the Wistar strain; conditions: for response vs control in vivo at 100 mg/kg: Rattus norvegicus, po; for response vs control in vivo at 100 mg/kg / Relative liver weight, relative to Control (100): in parentheses, Control = (100); for Liver lipid levels Ch / Liver lipid levels PL / Liver lipid levels TG / Relative liver weight / Serum lipid levels Ch / Serum lipid levels PL / Serum lipid levels TG: Mean ± S.E. (n = 9)
# Procedure: (2) Male rats of the Wistar strain weighing 160-180 g were fed a stock deit (CE-2, Japan CLEA, Tokyo) and water ad libitum. The present compounds and KCD-232 were suspended, respectively, in a 0.5% of CMC solution and give orally to rats once a day at a dose of 100 mg/kg b.w. for 10 days.
# Control rats were received the 0.5% CMC solution alone. The diet was withdrawn immediately after the last administration of compounds. Animals were sacrificed by decapitation 4 hr after the last administration and blood was collected, clotted and centrifuged to obtain serum. The liver was excised quickly and weighed. Total lipids were extracted from the serum and liver, and the levels of Ch, TG and PL were determined colorimetrically.
# [2] = test system: serum and liver lipid levels in rats; experiment: Serum and liver lipid levels and relative liver weight in rats (25 mg/kg, 10 days); type: in vivo, male Wistar rats; conditions: Table 4; for Liver lipid levels Ch / Liver lipid levels PL / Liver lipid levels TG / Relative liver weight / Serum lipid levels Ch / Serum lipid levels PL / Serum lipid levels TG: 25 mg/kg p.o. 10 days, Mean ± S.E. (n = 7); for Liver lipid levels Ch, relative to Control (100) / Liver lipid levels PL, relative to Control (100) / Liver lipid levels TG, relative to Control (100) / Relative liver weight, relative to Control (100) / Serum lipid levels Ch, relative to Control (100) / Serum lipid levels PL, relative to Control (100) / Serum lipid levels TG, relative to Control (100): in parentheses
# Procedure: (3) The present compounds and KCD-232 were orally given to male Wistar rats weighing 160-180 g once a day at a dose of 25 mg/kg b.w. for 10 days. Rats were subjected to fast for 4 hr immediately after the last administration of compounds, thereafter they were sacrificed by decapitation and blood was collected, clotted and centrifuged to obtain serum. The liver was removed quickly and weighed. Total lipids were extracted from the serum and liver, and then the levels of total Ch, TG and PL were determined with colorimetric methods.
# [3] = test system: serum and liver lipid levels in normal rats; experiment: Effects on relative liver weight, serum and liver lipid levels in normal rats (100 mg/kg, 7 days); type: in vivo, Male Wistar strain rats
# Procedure: (1) Effects on relative liver weight, serum and liver lipid levels in normal rats
# Male Wistar strain rats, weighing 180-210 g were orally administered the present compounds (X=Cl, n1 =2, 3, 4 and n2 =1) and 4-(4-chlorobenzyloxy)benzyl nicotinate (KCD-232), being X=Cl, n1 =1, n2 =1, respectively, which were suspended in 0.5% carboxymethyl cellulose (CMC) solution once a day at a dose of 100 mg/kg b.w. for 7 days. The last administration was occured in rats fasted overnight. At 4 hr later blood was withdrawn from jugular vein, clotted and centrifuged to obtain serum. The liver was rapidly removed and weighed. Total lipids were extracted from the serum and liver, and cholesterol (Ch), triglycerides (TG) and phospholipids (PL) levels were determined.
# [4] = 240 h, Table 3, read-out: Liver lipid levels PL, relative to Control (100)
# [5] = Table 3, read-out: Liver lipid levels Ch, relative to Control (100)
# [6] = Table 3, read-out: Liver lipid levels TG, relative to Control (100)
# [7] = Table 3, read-out: Serum lipid levels Ch, relative to Control (100)
# [8] = Table 3, read-out: Serum lipid levels PL, relative to Control (100)
# [9] = Table 3, read-out: Serum lipid levels TG, relative to Control (100)
# [10] = Table 3, 100 mg/kg p.o. 10 days
# [11] = 240 h, Table 2, read-out: Liver lipid levels PL, relative to Control (100)
# [12] = Table 2, read-out: Liver lipid levels Ch, relative to Control (100)
# [13] = Table 2, read-out: Liver lipid levels TG, relative to Control (100)
# [14] = Table 2, read-out: Serum lipid levels Ch, relative to Control (100)
# [15] = Table 2, read-out: Serum lipid levels PL, relative to Control (100)
# [16] = Table 2, read-out: Serum lipid levels TG, relative to Control (100)
# [17] = Table 2, 100 mg/kg p.o. 10 days
# [18] = Table 1, 100 mg/kg p.o. 7 days, fasted overnight, mean ± S.E. (n = 6)
# [19] = Table 1, in parentheses, Control = (100)
structure (smiles),measurement,setting,value
"O=C(OCCCc1ccc(OCc2ccc(Cl)cc2)cc1)c1cccnc1 [n1=1, n2=3, 3-[4-(4-Chlorobenzyloxy)phenyl]propyl nicotinate]",LD50,in vivo,> 4000 mg/kg
same,response vs control in vivo at 100 mg/kg,[1]; [4],96.1%
same,response vs control in vivo at 100 mg/kg,[1]; [5],97.8%
same,response vs control in vivo at 100 mg/kg,[1]; [6],73%
same,response vs control in vivo at 100 mg/kg,[1]; [7],83.7%
same,response vs control in vivo at 100 mg/kg,[1]; [8],79.4%
same,response vs control in vivo at 100 mg/kg,[1]; [9],63.3%
same,Liver lipid levels Ch,[1]; [10],2.27 ± 0.09 mg/g liver
same,Liver lipid levels PL,[1]; [10],34.8 ± 0.5 mg/g liver
same,Liver lipid levels TG,[1]; [10],5.24 ± 0.40 mg/g liver
same,Relative liver weight,[1]; [10],3.70 ± 0.05 g/100 g b.w.
same,Serum lipid levels Ch,[1]; [10],81.7 ± 2.7 mg/dL
same,Serum lipid levels PL,[1]; [10],124 ± 5.5 mg/dL
same,Serum lipid levels TG,[1]; [10],79.5 ± 10.4 mg/dL
same,"Relative liver weight, relative to Control (100)",[1]; Table 3,98
same,Liver lipid levels Ch,[2],3.23 ± 0.17 mg/g liver
same,Liver lipid levels PL,[2],38.2 ± 0.5 mg/g liver
same,Liver lipid levels TG,[2],3.80 ± 0.50 mg/g liver
same,Relative liver weight,[2],3.53 ± 0.08 g/100 g b.w.
same,Serum lipid levels Ch,[2],66.4 ± 5.3 mg/dL
same,Serum lipid levels PL,[2],85.8 ± 4.8 mg/dL
same,Serum lipid levels TG,[2],29.2 ± 1.7 mg/dL
same,"Liver lipid levels Ch, relative to Control (100)",[2],99.4
same,"Liver lipid levels PL, relative to Control (100)",[2],100.5
same,"Liver lipid levels TG, relative to Control (100)",[2],51.1
same,"Relative liver weight, relative to Control (100)",[2],100
same,"Serum lipid levels Ch, relative to Control (100)",[2],84.7
same,"Serum lipid levels PL, relative to Control (100)",[2],79.3
same,"Serum lipid levels TG, relative to Control (100)",[2],77.2
"O=C(OCCCCCCc1ccc(OCc2ccc(Cl)cc2)cc1)c1cccnc1 [n1=1, n2=6, 6-[4-(4-Chlorobenzyloxy)phenyl]hexyl nicotinate]",LD50,in vivo,> 4000 mg/kg
same,response vs control in vivo at 100 mg/kg,[1]; [4],106%
same,response vs control in vivo at 100 mg/kg,[1]; [5],107%
same,response vs control in vivo at 100 mg/kg,[1]; [6],83.7%
same,response vs control in vivo at 100 mg/kg,[1]; [7],75.3%
same,response vs control in vivo at 100 mg/kg,[1]; [8],68.9%
same,response vs control in vivo at 100 mg/kg,[1]; [9],32.1%
same,Liver lipid levels Ch,[1]; [10],2.48 ± 0.10 mg/g liver
same,Liver lipid levels PL,[1]; [10],38.5 ± 0.7 mg/g liver
same,Liver lipid levels TG,[1]; [10],6.01 ± 0.76 mg/g liver
same,Relative liver weight,[1]; [10],3.72 ± 0.06 g/100 g b.w.
same,Serum lipid levels Ch,[1]; [10],73.5 ± 2.3 mg/dL
same,Serum lipid levels PL,[1]; [10],107 ± 3.1 mg/dL
same,Serum lipid levels TG,[1]; [10],40.3 ± 3.5 mg/dL
same,"Relative liver weight, relative to Control (100)",[1]; Table 3,98
same,Liver lipid levels Ch,[2],2.83 ± 0.18 mg/g liver
same,Liver lipid levels PL,[2],38.8 ± 1.1 mg/g liver
same,Liver lipid levels TG,[2],5.48 ± 0.93 mg/g liver
same,Relative liver weight,[2],3.91 ± 0.09 g/100 g b.w.
same,Serum lipid levels Ch,[2],70 ± 5.5 mg/dL
same,Serum lipid levels PL,[2],100 ± 5.9 mg/dL
same,Serum lipid levels TG,[2],33.5 ± 2.5 mg/dL
same,"Liver lipid levels Ch, relative to Control (100)",[2],87.1
same,"Liver lipid levels PL, relative to Control (100)",[2],102.1
same,"Liver lipid levels TG, relative to Control (100)",[2],73.7
same,"Relative liver weight, relative to Control (100)",[2],111
same,"Serum lipid levels Ch, relative to Control (100)",[2],89.3
same,"Serum lipid levels PL, relative to Control (100)",[2],92.5
same,"Serum lipid levels TG, relative to Control (100)",[2],88.6
"O=C(OCc1ccc(OCCCCCCc2ccc(Cl)cc2)cc1)c1cccnc1 [n1=6, n2=1, 4-[6-(4-Chlorophenyl)hexyloxy]benzyl nicotinate]",LD50,in vivo,> 4000 mg/kg
same,response vs control in vivo at 100 mg/kg,[1]; [11],109%
same,response vs control in vivo at 100 mg/kg,[1]; [12],94.4%
same,response vs control in vivo at 100 mg/kg,[1]; [13],73.9%
same,response vs control in vivo at 100 mg/kg,[1]; [14],74.6%
same,response vs control in vivo at 100 mg/kg,[1]; [15],65.9%
same,response vs control in vivo at 100 mg/kg,[1]; [16],25.6%
same,Liver lipid levels Ch,[1]; [17],2.87 ± 0.08 mg/g liver
same,Liver lipid levels PL,[1]; [17],41.6 ± 0.5 mg/g liver
same,Liver lipid levels TG,[1]; [17],4.67 ± 0.32 mg/g liver
same,Relative liver weight,[1]; [17],4.17 ± 0.07 g/100 g b.w.
same,Serum lipid levels Ch,[1]; [17],64.7 ± 3 mg/dL
same,Serum lipid levels PL,[1]; [17],97.8 ± 3.8 mg/dL
same,Serum lipid levels TG,[1]; [17],31.7 ± 2.8 mg/dL
same,"Relative liver weight, relative to Control (100)",[1]; Table 2,108
same,Liver lipid levels Ch,[2],3.14 ± 0.17 mg/g liver
same,Liver lipid levels PL,[2],38.9 ± 0.8 mg/g liver
same,Liver lipid levels TG,[2],3.03 ± 0.41 mg/g liver
same,Relative liver weight,[2],3.91 ± 0.08 g/100 g b.w.
same,Serum lipid levels Ch,[2],54.2 ± 4.9 mg/dL
same,Serum lipid levels PL,[2],72.2 ± 5.6 mg/dL
same,Serum lipid levels TG,[2],24 ± 2.1 mg/dL
same,"Liver lipid levels Ch, relative to Control (100)",[2],96.7
same,"Liver lipid levels PL, relative to Control (100)",[2],102.4
same,"Liver lipid levels TG, relative to Control (100)",[2],40.7
same,"Relative liver weight, relative to Control (100)",[2],111
same,"Serum lipid levels Ch, relative to Control (100)",[2],69.1
same,"Serum lipid levels PL, relative to Control (100)",[2],66.7
same,"Serum lipid levels TG, relative to Control (100)",[2],63.5
"O=C(OCc1ccc(OCCCCc2ccc(Cl)cc2)cc1)c1cccnc1 [n1=4, n2=1, 4-[4-(4-chlorophenyl)butoxy]benzyl nicotinate]",LD50,in vivo,> 4000 mg/kg
same,lipid lowering effects compared with KCD-232 (in words),[1]; 100 mg/kg p.o. 10 days,the lipid lowering effects were superior to that of KCD-232
same,response vs control in vivo at 100 mg/kg,[1]; [11],107%
same,response vs control in vivo at 100 mg/kg,[1]; [12],94.4%
same,response vs control in vivo at 100 mg/kg,[1]; [13],80.5%
same,response vs control in vivo at 100 mg/kg,[1]; [14],67.2%
same,response vs control in vivo at 100 mg/kg,[1]; [15],60.9%
same,response vs control in vivo at 100 mg/kg,[1]; [16],24.2%
same,Liver lipid levels Ch,[1]; [17],2.87 ± 0.13 mg/g liver
same,Liver lipid levels PL,[1]; [17],40.8 ± 0.7 mg/g liver
same,Liver lipid levels TG,[1]; [17],5.06 ± 0.69 mg/g liver
same,Relative liver weight,[1]; [17],4.04 ± 0.10 g/100 g b.w.
same,Serum lipid levels Ch,[1]; [17],58.3 ± 3.3 mg/dL
same,Serum lipid levels PL,[1]; [17],90.5 ± 4.6 mg/dL
same,Serum lipid levels TG,[1]; [17],29.9 ± 2.3 mg/dL
same,"Relative liver weight, relative to Control (100)",[1]; Table 2,105
same,"serum Ch, TG and PL (in words)","[3]; 100 mg/kg p.o. 7 days, compared with control","significantly reduced serum Ch, TG and PL"
same,reduction of liver TG level compared with control,"[3]; 100 mg/kg p.o. 7 days, p<0.05",32%
same,Liver lipid levels Ch,[3]; [18],3.43 ± 0.10 mg/g liver
same,Liver lipid levels PL,[3]; [18],30.2 ± 1.4 mg/g liver
same,Liver lipid levels TG,[3]; [18],5.06 ± 1.21 mg/g liver
same,Serum lipid levels Ch,[3]; [18],45.3 ± 3.8 mg/dL
same,Serum lipid levels PL,[3]; [18],60.4 ± 4.8 mg/dL
same,Serum lipid levels TG,[3]; [18],16 ± 3.2 mg/dL
same,Relative liver weight,"[3]; Table 1, 100 mg/kg p.o. 7 days, mean ± S.E. (n = 6)",3.16 ± 0.05 g/100 g b.w.
same,"Liver lipid levels Ch, relative to Control (100)",[3]; [19],97
same,"Liver lipid levels PL, relative to Control (100)",[3]; [19],82
same,"Liver lipid levels TG, relative to Control (100)",[3]; [19],69
same,"Relative liver weight, relative to Control (100)",[3]; [19],102
same,"Serum lipid levels Ch, relative to Control (100)",[3]; [19],60
same,"Serum lipid levels PL, relative to Control (100)",[3]; [19],59
same,"Serum lipid levels TG, relative to Control (100)",[3]; [19],47

# — patent US4556715A, “Nicotinic acid derivatives” (Kyorin Pharmaceutical Co., Ltd., priority 1980, dated 1985)
